Measurements: PubChem BioAssay AID2060624 (Molecular Pharmacology Branch, DTP, NCI, 2025)

Test system: 217524-143-R1-J4-PDC spheroids with HUVEC/MSC, viability
Assay: Anticancer human tumor 217524-143-R1-J4-PDC patient-derived pancreatic carcinoma cell line growth inhibition [CLK]
Conditions: for IC50: curve of first compound; for viability, T/C: stronger effect = lower value
Summary of the method: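 Patient-derived tumor cells grown as complex spheroids with HUVEC endothelial cells and mesenchymal stem cells, treated with drug combinations. Concentrations descend in half-log steps from near clinical Cmax, or from 10 microM if Cmax unknown.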

[1] = second compound 0.0316 µM, first compound 0.0316 µM
[2] = second compound 0.0316 µM, first compound 0.1 µM
[3] = second compound 0.0316 µM, first compound 0.316 µM
[4] = second compound 0.0316 µM, first compound 1 µM
[5] = second compound 0.1 µM, first compound 0.0316 µM
[6] = second compound 0.1 µM, first compound 0.1 µM
[7] = second compound 0.1 µM, first compound 0.316 µM
[8] = second compound 0.1 µM, first compound 1 µM
[9] = second compound 0.316 µM, first compound 0.0316 µM
[10] = second compound 0.316 µM, first compound 0.1 µM
[11] = second compound 0.316 µM, first compound 0.316 µM
[12] = second compound 0.316 µM, first compound 1 µM
[13] = second compound 1 µM, first compound 0.0316 µM
[14] = second compound 1 µM, first compound 0.1 µM
[15] = second compound 1 µM, first compound 0.316 µM
[16] = second compound 1 µM, first compound 1 µM
[17] = second compound 3.16 µM, first compound 0.0316 µM
[18] = second compound 3.16 µM, first compound 0.1 µM
[19] = second compound 3.16 µM, first compound 0.316 µM
[20] = second compound 3.16 µM, first compound 1 µM
[21] = second compound 10 µM, first compound 0.0316 µM
[22] = second compound 10 µM, first compound 0.1 µM
[23] = second compound 10 µM, first compound 0.316 µM
[24] = second compound 10 µM, first compound 1 µM
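Further: spheroids exposed to agents for seven days before reading.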
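Wherever viability, T/C is given: 100% = DMSO vehicle control viability.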

C=CC(=O)Nc1cc(Nc2nccc(-c3cn(C)c4ccccc34)n2)c(OC)cc1N(C)CCN(C)C + CNC(=O)c1ccc(Nc2nc(OC3CCCC3)c3c(-c4ccc5nc(C)oc5c4)c[nH]c3n2)c(OC)c1
IC50 (second compound 0.0316 µM): 61.3 nM
IC50 (second compound 0.1 µM): < 0.949 nM
IC50 (second compound 0.316 µM): < 0.949 nM
IC50 (second compound 1 µM): < 0.949 nM
IC50 (second compound 3.16 µM): < 0.949 nM
IC50 (second compound 10 µM): < 0.949 nM
viability, T/C (second compound 0.0316 µM, first compound 0.000949 µM): 92%
viability, T/C (second compound 0.0316 µM, first compound 0.003 µM): 83.9%
viability, T/C (second compound 0.0316 µM, first compound 0.00949 µM): 66.6%
viability, T/C (second compound 0.0316 µM, first compound 0.03 µM): 64.7%
viability, T/C (second compound 0.0316 µM, first compound 0.0949 µM): 41.2%
viability, T/C (second compound 0.0316 µM, first compound 0.3 µM): 31.4%
viability, T/C (second compound 0.1 µM, first compound 0.000949 µM): 47.9%
viability, T/C (second compound 0.1 µM, first compound 0.003 µM): 38.6%
viability, T/C (second compound 0.1 µM, first compound 0.00949 µM): 41.9%
viability, T/C (second compound 0.1 µM, first compound 0.03 µM): 31.2%
viability, T/C (second compound 0.1 µM, first compound 0.0949 µM): 22%
viability, T/C (second compound 0.1 µM, first compound 0.3 µM): 17.1%
viability, T/C (second compound 0.316 µM, first compound 0.000949 µM): 39.3%
viability, T/C (second compound 0.316 µM, first compound 0.003 µM): 39.4%
viability, T/C (second compound 0.316 µM, first compound 0.00949 µM): 34%
viability, T/C (second compound 0.316 µM, first compound 0.03 µM): 28.7%
viability, T/C (second compound 0.316 µM, first compound 0.0949 µM): 16%
viability, T/C (second compound 0.316 µM, first compound 0.3 µM): 16%
viability, T/C (second compound 1 µM, first compound 0.000949 µM): 31.5%
viability, T/C (second compound 1 µM, first compound 0.003 µM): 28.3%
viability, T/C (second compound 1 µM, first compound 0.00949 µM): 25.9%
viability, T/C (second compound 1 µM, first compound 0.03 µM): 18%
viability, T/C (second compound 1 µM, first compound 0.0949 µM): 13.3%
viability, T/C (second compound 1 µM, first compound 0.3 µM): 9.6%
viability, T/C (second compound 3.16 µM, first compound 0.000949 µM): 31.4%
viability, T/C (second compound 3.16 µM, first compound 0.003 µM): 28.3%
viability, T/C (second compound 3.16 µM, first compound 0.00949 µM): 24.9%
viability, T/C (second compound 3.16 µM, first compound 0.03 µM): 19.2%
viability, T/C (second compound 3.16 µM, first compound 0.0949 µM): 12.5%
viability, T/C (second compound 3.16 µM, first compound 0.3 µM): 8.29%
viability, T/C (second compound 10 µM, first compound 0.000949 µM): 26.6%
viability, T/C (second compound 10 µM, first compound 0.003 µM): 22.3%
viability, T/C (second compound 10 µM, first compound 0.00949 µM): 24.7%
viability, T/C (second compound 10 µM, first compound 0.03 µM): 20.1%
viability, T/C (second compound 10 µM, first compound 0.0949 µM): 13%
viability, T/C (second compound 10 µM, first compound 0.3 µM): 9.91%

CCN1CCN(Cc2ccc(Nc3ncc(F)c(-c4cc(F)c5nc(C)n(C(C)C)c5c4)n3)nc2)CC1 + CNC(=O)c1ccc(Nc2nc(OC3CCCC3)c3c(-c4ccc5nc(C)oc5c4)c[nH]c3n2)c(OC)c1
IC50 (second compound 0.0316 µM): 133 nM
IC50 (second compound 0.1 µM): < 3.16 nM
IC50 (second compound 0.316 µM): < 3.16 nM
IC50 (second compound 1 µM): < 3.16 nM
IC50 (second compound 3.16 µM): < 3.16 nM
IC50 (second compound 10 µM): < 3.16 nM
viability, T/C (second compound 0.0316 µM, first compound 0.00316 µM): 84.8%
viability, T/C (second compound 0.0316 µM, first compound 0.01 µM): 71.2%
viability, T/C [1]: 68.4%
viability, T/C [2]: 52.4%
viability, T/C [3]: 40%
viability, T/C [4]: 38.4%
viability, T/C (second compound 0.1 µM, first compound 0.00316 µM): 50.3%
viability, T/C (second compound 0.1 µM, first compound 0.01 µM): 42%
viability, T/C [5]: 35.6%
viability, T/C [6]: 27.8%
viability, T/C [7]: 37.2%
viability, T/C [8]: 36%
viability, T/C (second compound 0.316 µM, first compound 0.00316 µM): 46.8%
viability, T/C (second compound 0.316 µM, first compound 0.01 µM): 34.8%
viability, T/C [9]: 30.8%
viability, T/C [10]: 25.7%
viability, T/C [11]: 30.5%
viability, T/C [12]: 32%
viability, T/C (second compound 1 µM, first compound 0.00316 µM): 28.4%
viability, T/C (second compound 1 µM, first compound 0.01 µM): 26.2%
viability, T/C [13]: 28.5%
viability, T/C [14]: 25.2%
viability, T/C [15]: 25.2%
viability, T/C [16]: 26.3%
viability, T/C (second compound 3.16 µM, first compound 0.00316 µM): 25.3%
viability, T/C (second compound 3.16 µM, first compound 0.01 µM): 24.8%
viability, T/C [17]: 23.9%
viability, T/C [18]: 21.1%
viability, T/C [19]: 21.6%
viability, T/C [20]: 22.2%
viability, T/C (second compound 10 µM, first compound 0.00316 µM): 24.3%
viability, T/C (second compound 10 µM, first compound 0.01 µM): 23%
viability, T/C [21]: 23.8%
viability, T/C [22]: 21.9%
viability, T/C [23]: 21.4%
viability, T/C [24]: 26.4%

Nc1ccccc1NC(=O)c1ccc(CNC(=O)OCc2cccnc2)cc1 + CNC(=O)c1ccc(Nc2nc(OC3CCCC3)c3c(-c4ccc5nc(C)oc5c4)c[nH]c3n2)c(OC)c1
IC50 (second compound 0.0316 µM): 4960 nM
IC50 (second compound 0.1 µM): 3850 nM
IC50 (second compound 0.316 µM): < 31.6 nM
IC50 (second compound 1 µM): < 31.6 nM
IC50 (second compound 3.16 µM): < 31.6 nM
IC50 (second compound 10 µM): < 31.6 nM
viability, T/C [1]: 109%
viability, T/C [2]: 99%
viability, T/C [3]: 97.3%
viability, T/C [4]: 87.7%
viability, T/C (second compound 0.0316 µM, first compound 3.16 µM): 59.2%
viability, T/C (second compound 0.0316 µM, first compound 10 µM): 34%
viability, T/C [5]: 50.3%
viability, T/C [6]: 50.2%
viability, T/C [7]: 57.3%
viability, T/C [8]: 62.1%
viability, T/C (second compound 0.1 µM, first compound 3.16 µM): 53%
viability, T/C (second compound 0.1 µM, first compound 10 µM): 32%
viability, T/C [9]: 37.9%
viability, T/C [10]: 43%
viability, T/C [11]: 47.8%
viability, T/C [12]: 60.5%
viability, T/C (second compound 0.316 µM, first compound 3.16 µM): 53.2%
viability, T/C (second compound 0.316 µM, first compound 10 µM): 29.9%
viability, T/C [13]: 35.8%
viability, T/C [14]: 35.9%
viability, T/C [15]: 49.5%
viability, T/C [16]: 46.2%
viability, T/C (second compound 1 µM, first compound 3.16 µM): 38.4%
viability, T/C (second compound 1 µM, first compound 10 µM): 22.3%
viability, T/C [17]: 33.1%
viability, T/C [18]: 30.3%
viability, T/C [19]: 34.6%
viability, T/C [20]: 45%
viability, T/C (second compound 3.16 µM, first compound 3.16 µM): 40.3%
viability, T/C (second compound 3.16 µM, first compound 10 µM): 19.3%
viability, T/C [21]: 30.4%
viability, T/C [22]: 25.9%
viability, T/C [23]: 39.4%
viability, T/C [24]: 38.6%
viability, T/C (second compound 10 µM, first compound 3.16 µM): 37.4%
viability, T/C (second compound 10 µM, first compound 10 µM): 13.3%
